Inhibition data for 54 compounds are collected here from doi:10.1101/2022.03.12.484055v1 (biorxiv, 2022).

The structures appear in SMILES notation. Where two headings read alike, the source gives them in different places.

Common to all, as to experiment: cell-based
Holding throughout (conditions): tsA201, read-out: % inhibition @ 30 µM

The target of assay [1] is T1, ASIC1 (hASIC1; ASIC1a as primary isoform in tsA-201 cells) (Homo sapiens, UniProt P78348).
T1 sequence (P78348 1-528): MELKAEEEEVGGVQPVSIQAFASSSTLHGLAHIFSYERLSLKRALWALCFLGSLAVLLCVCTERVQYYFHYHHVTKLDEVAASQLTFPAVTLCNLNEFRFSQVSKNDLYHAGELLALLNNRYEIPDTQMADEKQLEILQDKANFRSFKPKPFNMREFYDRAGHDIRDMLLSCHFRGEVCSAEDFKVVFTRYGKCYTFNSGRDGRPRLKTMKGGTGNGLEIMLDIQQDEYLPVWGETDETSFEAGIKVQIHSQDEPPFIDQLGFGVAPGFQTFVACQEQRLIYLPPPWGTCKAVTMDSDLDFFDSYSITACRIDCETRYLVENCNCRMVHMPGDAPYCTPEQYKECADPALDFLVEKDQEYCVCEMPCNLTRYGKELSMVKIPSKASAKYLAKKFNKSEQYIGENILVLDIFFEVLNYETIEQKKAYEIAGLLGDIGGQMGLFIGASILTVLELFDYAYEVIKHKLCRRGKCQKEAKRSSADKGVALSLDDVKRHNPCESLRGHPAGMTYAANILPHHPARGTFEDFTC

Assay [2] concerns the target T1, ASIC1 (hASIC1; ASIC1a as primary isoform in tsA-201 cells). This is another data set of the same source.
Assay [3] has the same target. The source holds these as a separate data set.
Assay [4] shares this target. This is another data set of the same source.

Turning to `CC(C)c1ccc(C(=O)NC(=N)N)cc1S(C)(=O)=O` [compound 95, 95], the inhibition at 30 µM in assay [1] was 37%.
For the compound `COc1ccc2cc(-c3nc(C(=O)NC(=N)N)c(N)nc3N)oc2c1` [compound 33, 33], in assay [2], the inhibition at 30 µM was 68%.
Take `COc1ncc(-c2nc(C(=O)NC(=N)N)c(N)nc2N2CCCOCC2)cn1` [compound 85, 85]: the inhibition at 30 µM in assay [3] was found to be 8%.
For the compound `N=C(N)NC(=O)c1nc(-c2cc3ccccc3s2)c(N2CCCCCC2)nc1N` [compound 19, 19], the inhibition at 30 µM in assay [2] is 67%.
With `N=C(N)NC(=O)c1nc(-c2cc3ncccc3o2)c(N)nc1N` [compound 37, 37], in assay [2], the inhibition at 30 µM was 17%.
The same measure, in the same setting: as for `COc1ncc(-c2nc(C(=O)NC(=N)N)c(N)nc2N2CCCCCC2)cn1` [compound 47], the figure is 33%; as for `N=C(N)NC(=O)c1nc(-c2ccco2)c(N2CCCCCC2)nc1N` [compound 15, 15], 46%.
On to `CC(C)Nc1ncc(-c2nc(C(=O)NC(=N)N)c(N)nc2N2CCCCCC2)cn1` [compound 75, 75], for which the inhibition at 30 µM in assay [4] was determined as 11%.
Take `N=C(N)NC(=O)c1nc(-c2cc3ncccc3o2)c(N2CCCCCC2)nc1N` [compound 38, 38]: in assay [2], the inhibition at 30 µM was determined as 20%.
`N=C(N)NC(=O)c1nc(Cl)c(N2CCOCC2)nc1N` [compound 80, 80]: in assay [3], the inhibition at 30 µM is 75%.
In the case of `N=C(N)NC(=O)c1nc(-c2cnc(N)nc2)c(N2CCCCCC2)nc1N` [compound 73, 73], the inhibition at 30 µM in assay [4] was determined as 6%.
For `Cn1cc(-c2nc(C(=O)NC(=N)N)c(N)nc2N2CCCCCC2)cn1` [compound 50, 50], in assay [2], the inhibition at 30 µM was found to be 53%.
The same measure, in the same setting: as for `N#Cc1ccc2oc(-c3nc(C(=O)NC(=N)N)c(N)nc3N3CCCCCC3)cc2c1` [compound 32, 32], the figure is 64%; as for `COc1ncc(-c2nc(C(=O)NC(=N)N)c(N)nc2N)cn1` [compound 46], 34%.
For the compound `N=C(N)NC(=O)c1nc(-c2ccc3c(c2)CCO3)c(N)nc1N` [compound 41, 41], the inhibition at 30 µM in assay [2] worked out at 22%.
On the same count and under the same terms, next, `N=C(N)NC(=O)c1nc(-c2ccc3c(c2)CCO3)c(N2CCCCCC2)nc1N` [compound 42, 42]: 49%.
On to `N=C(N)NC(=O)c1nc(I)c(N)nc1N` [compound 97], for which, in assay [1], the inhibition at 30 µM was 95%.
Regarding `N=C(N)NC(=O)c1nc(-c2cc3ccccc3o2)c(N2CCCCCC2)nc1N` [compound 17], the inhibition at 30 µM in assay [2] stood at 64%.
Turning to `CNc1ncc(-c2nc(C(=O)NC(=N)N)c(N)nc2N2CCCCCC2)cn1` [compound 74, 74], in assay [4], the inhibition at 30 µM came to 27%.
Same read-out and setting: next, `N=C(N)NC(=O)c1nc(-c2cnc(NCCO)nc2)c(N2CCCCCC2)nc1N` [compound 76, 76]: 6%.
In the case of `N=C(N)NC(=O)c1nc(-c2ccc(C(F)(F)F)cc2)c(N2CCCCCC2)nc1N` [compound 49, 49], the inhibition at 30 µM in assay [2] is 67%.
On the same count and under the same terms, next, `N=C(N)NC(=O)c1nc(-c2ccc(C(F)(F)F)cc2)c(N)nc1N` [compound 48, 48]: 44%.
The same measure, in the same setting: as for `N=C(N)NC(=O)c1nc(-c2cc3cc(Br)ccc3o2)c(N)nc1N` [compound 27, 27], the figure is 45%; as for `COc1ccc2oc(-c3nc(C(=O)NC(=N)N)c(N)nc3N3CCCCCC3)cc2c1` [compound 30, 30], 35%.
For `N=C(N)NC(=O)c1nc(Cl)c(NCc2ccccc2)nc1N` [compound 87], in assay [1], the inhibition at 30 µM turned out to be 90%.
For `N=C(N)NC(=O)c1nc(Cl)c(N)nc1N` [compound 11, amiloride], the inhibition at 30 µM in assay [2] stood at 88%.
Regarding `N=C(N)NC(=O)c1nc(-c2cncnc2)c(N2CCCCCC2)nc1N` [compound 45, 45], the inhibition at 30 µM in assay [2] worked out at 25%.
As for `Nc1nnc(-c2nc(-c3cc4ccccc4o3)c(N3CCCCCC3)nc2N)[nH]1` [compound 70, 70], in assay [4], the inhibition at 30 µM was 15%.
As for `N=C(NC(=O)c1nc(Cl)c(N)nc1N)Nc1ccccc1` [compound 96, 96], the inhibition at 30 µM in assay [1] came out at 94%.
As to `N=C(N)NC(=O)c1nc(-c2cc3cc(Br)ccc3o2)c(N2CCCCCC2)nc1N` [compound 28, 28], in assay [2], the inhibition at 30 µM is 59%.
Turning to `COC(=O)c1nc(-c2cc3ccccc3o2)c(N2CCCCCC2)nc1N` [compound 67, 67], in assay [4], the inhibition at 30 µM was 9%.
As to `N=C(N)NC(=O)c1nc(-c2cc3cc(Cl)ccc3o2)c(N2CCCCCC2)nc1N` [compound 26, 26], the inhibition at 30 µM in assay [2] is 35%.
Same read-out and setting: next, `N=C(N)NC(=O)c1nc(-c2cc3cc(F)cc(F)c3o2)c(N2CCCCCC2)nc1N` [compound 36, 36]: 69%.
Take `Cc1ccc(S(=O)(=O)NCCNc2nc(N)c(C(=O)NC(=N)N)nc2Cl)cc1` [compound 91]: the inhibition at 30 µM in assay [1] is 79%.
Consider `N#CCCNc1nc(N)c(C(=O)NC(=N)N)nc1Cl` [compound 89], for which the inhibition at 30 µM in assay [1] is 80%.
As for `N=C(N)NC(=O)c1ccccc1` [compound 92, 92], the inhibition at 30 µM in assay [1] is 22%.
Same read-out and setting: as for `N=C(N)NC(=O)c1ccccn1` [compound 93, 93], the figure is 22%.
As to `N#Cc1ccc2oc(-c3nc(C(=O)NC(=N)N)c(N)nc3N)cc2c1` [compound 31, 31], the inhibition at 30 µM in assay [2] came to 30%.
On the same count and under the same terms, as for `N=C(N)NC(=O)c1nc(-c2cc3ccccc3s2)c(N)nc1N` [compound 18, 18], the figure is 45%.
In the case of `CN(C)CCC(=O)c1nc(-c2cc3ccccc3o2)c(N2CCCCCC2)nc1N` [compound 72, 72], the inhibition at 30 µM in assay [4] amounted to 31%.
Turning to `CC(C)(C)c1ccc2oc(-c3nc(C(=O)NC(=N)N)c(N)nc3N3CCCCCC3)cc2c1` [compound 22, 22], the inhibition at 30 µM in assay [2] is 44%.
Consider `CN(C)C(=O)c1nc(-c2cc3ccccc3o2)c(N2CCCCCC2)nc1N` [compound 69, 69], for which the inhibition at 30 µM in assay [4] amounted to 10%.
Take `N=C(N)NC(=O)c1nc(Cl)c(NCCc2ccccc2)nc1N` [compound 88]: the inhibition at 30 µM in assay [1] amounted to 91%.
Consider `N=C(N)NC(=O)c1nc(Cl)c(N2CCCCCC2)nc1N` [compound 13, HMA], for which the inhibition at 30 µM in assay [2] was 79%.
Same read-out and setting: next, `Cc1ccc2oc(-c3nc(C(=O)NC(=N)N)c(N)nc3N)cc2c1` [compound 20, 20]: 65%.
For `Nc1nc(N2CCCCCC2)c(-c2cc3ccccc3o2)nc1C(=O)O` [compound 68, 68], the inhibition at 30 µM in assay [4] was found to be 6%.
With `N=C(N)NC(=O)c1nc(-c2ccc3occc3c2)c(N)nc1N` [compound 43, 43], in assay [2], the inhibition at 30 µM was 59%.
Regarding `N=C(N)NC(=O)c1nc(-c2cc3cnccc3o2)c(N)nc1N` [compound 39, 39], the inhibition at 30 µM in assay [2] turned out to be 36%.
In the case of `N=C(N)NC(=O)c1nc(-c2cc3cc(Cl)ccc3o2)c(N)nc1N` [compound 25, 25], the inhibition at 30 µM in assay [2] came to 69%.
As to `Nc1noc(-c2nc(-c3cc4ccccc4o3)c(N3CCCCCC3)nc2N)n1` [compound 71, 71], the inhibition at 30 µM in assay [4] stood at 8%.
With `N=C(N)NC(=O)c1nc(-c2ccc3occc3c2)c(N2CCCCCC2)nc1N` [compound 44, 44], in assay [2], the inhibition at 30 µM came out at 23%.
In the case of `N=C(N)NC(=O)c1nc(Cl)c(NCCP(=O)(O)O)nc1N` [compound 90, 90], in assay [1], the inhibition at 30 µM was 81%.
As for `N=C(N)NC(=O)c1nc(-c2cc3cc(F)ccc3o2)c(N2CCCCCC2)nc1N` [compound 24, 24], the inhibition at 30 µM in assay [2] came out at 58%.
Regarding `N=C(N)NC(=O)c1nc(-c2cc3cnccc3o2)c(N2CCCCCC2)nc1N` [compound 40, 40], the inhibition at 30 µM in assay [2] stood at 21%.
